In PubChem BioAssay AID194 (DTP/NCI, 2004):
Several values for one entry are separate records, joined by “and”; a condition that tells them apart may be missing. Equal values may be shown once. Results filed as inconclusive are left out.

System: BDF1 mice, B16 melanoma s.c., survival/tumor T/C
Assay: NCI In Vivo Anticancer Drug Screen. Data for tumor model B16 Melanoma (subcutaneous) in B6D2F1 (BDF1) mice
Protocol: The antitumor activity of compounds was measured in mice bearing transplantable tumors. Survival or tumor size were measured and the results are expressed as the measurement made in the treated group (T) divided by the measurement made in the vehicle treated control group (C). The tumor model used in this assay is B16 Melanoma (subcutaneous) in B6D2F1 (BDF1) mice

[1] = endpoint: median survival time, dose: 64.0 mg/kg/injection, schedule: Q01DX009 (ip), vehicle: Klucel (hydroxypropylcellulose) (HPC), higher = longer survival
[2] = endpoint: median survival time, dose: 40.0 mg/kg/injection, schedule: Q01DX009 (ip), vehicle: Klucel (hydroxypropylcellulose) (HPC), higher = longer survival
[3] = endpoint: median survival time, dose: 80.0 mg/kg/injection, schedule: Q01DX009 (ip), vehicle: Klucel (hydroxypropylcellulose) (HPC), higher = longer survival
[4] = endpoint: median survival time, dose: 160.0 mg/kg/injection, schedule: Q01DX009 (ip), vehicle: Klucel (hydroxypropylcellulose) (HPC), higher = longer survival
[5] = endpoint: median survival time, dose: 20.0 mg/kg/injection, schedule: Q01DX009 (ip), vehicle: Klucel (hydroxypropylcellulose) (HPC), higher = longer survival

CN(C)CCCN1c2ccccc2Sc2ccc(Cl)cc21
T/C (endpoint: median survival time, dose: 0.06 mg/kg/injection, schedule: Q01DX009 (ip), vehicle: saline, higher = longer survival): 98 % of control
T/C (endpoint: median survival time, dose: 0.12 mg/kg/injection, schedule: Q01DX009 (ip), vehicle: saline, higher = longer survival): 92 % of control
T/C (endpoint: median survival time, dose: 0.5 mg/kg/injection, schedule: Q01DX009 (ip), vehicle: saline, higher = longer survival): 97 % of control
T/C (endpoint: median survival time, dose: 1.0 mg/kg/injection, schedule: Q01DX009 (ip), vehicle: saline, higher = longer survival): 98 % of control

CC(CN1CC(=O)NC(=O)C1)N1CC(=O)NC(=O)C1 (configuration not stated)
T/C (endpoint: median survival time, dose: 6.25 mg/kg/injection, schedule: Q04DX003 (ip), vehicle: saline, higher = longer survival): 97 % of control
T/C (endpoint: median survival time, dose: 8.0 mg/kg/injection, schedule: Q01DX009 (ip), vehicle: Klucel (hydroxypropylcellulose) (HPC), higher = longer survival): 113 % of control
T/C (endpoint: median survival time, dose: 12.5 mg/kg/injection, schedule: Q04DX003 (ip), vehicle: saline, higher = longer survival): 97 % of control
T/C (endpoint: median survival time, dose: 15.0 mg/kg/injection, schedule: Q01DX009 (ip), vehicle: saline, higher = longer survival): 122 % of control
T/C (endpoint: median survival time, dose: 16.0 mg/kg/injection, schedule: Q01DX009 (ip), vehicle: Klucel (hydroxypropylcellulose) (HPC), higher = longer survival): 118 % of control
T/C (endpoint: median survival time, dose: 25.0 mg/kg/injection, schedule: Q04DX003 (ip), vehicle: saline, higher = longer survival): 102 % of control
T/C (endpoint: median survival time, dose: 30.0 mg/kg/injection, schedule: Q01DX009 (ip), vehicle: saline, higher = longer survival): 95 % of control
T/C (endpoint: median survival time, dose: 50.0 mg/kg/injection, schedule: Q04DX003 (ip), vehicle: saline, higher = longer survival): 111 % of control
T/C (endpoint: median survival time, dose: 60.0 mg/kg/injection, schedule: Q01DX009 (ip), vehicle: saline, higher = longer survival): 110 % of control
T/C [1]: 119 % of control
T/C (endpoint: median survival time, dose: 120.0 mg/kg/injection, schedule: Q01DX009 (ip), vehicle: saline, higher = longer survival): 109 % of control
T/C (endpoint: median survival time, dose: 200.0 mg/kg/injection, schedule: Q04DX003 (ip), vehicle: saline, higher = longer survival): 105 % of control
T/C (endpoint: median survival time, dose: 400.0 mg/kg/injection, schedule: Q04DX003 (ip), vehicle: saline, higher = longer survival): 120 % of control

O=NN(CCCl)C(=O)NC1CCC(=O)NC1=O (configuration not stated)
T/C (endpoint: median survival time, dose: 1.0 mg/kg/injection, schedule: Q01DX009 (ip), vehicle: Klucel (hydroxypropylcellulose) (HPC), higher = longer survival): 115 % of control
T/C (endpoint: median survival time, dose: 1.56 mg/kg/injection, schedule: Q01DX007 (ip), vehicle: Klucel (hydroxypropylcellulose) (HPC), higher = longer survival): 97 % of control
T/C (endpoint: median survival time, dose: 4.0 mg/kg/injection, schedule: Q01DX009 (ip), vehicle: Klucel (hydroxypropylcellulose) (HPC), higher = longer survival): 168 % of control and 228 % of control
T/C (endpoint: median survival time, dose: 4.32 mg/kg/injection, schedule: Q01DX007 (ip), vehicle: Klucel (hydroxypropylcellulose) (HPC), higher = longer survival): 98 % of control
T/C (endpoint: median survival time, dose: 7.2 mg/kg/injection, schedule: Q01DX007 (ip), vehicle: Klucel (hydroxypropylcellulose) (HPC), higher = longer survival): 121 % of control
T/C (endpoint: median survival time, dose: 17.0 mg/kg/injection, schedule: Q01DX001 (ip), vehicle: gum acacia, higher = longer survival): 177 % of control
T/C (endpoint: median survival time, dose: 23.0 mg/kg/injection, schedule: Q01DX001 (ip), vehicle: gum acacia, higher = longer survival): 89 % of control

C[C@@H]1CC[C@@]2(NC1)O[C@H]1C[C@H]3[C@@H]4CC=C5C[C@@H](O)CC[C@]5(C)[C@H]4CC[C@]3(C)[C@H]1[C@@H]2C
T/C (endpoint: median survival time, dose: 0.78 mg/kg/injection, schedule: Q01DX009 (ip), vehicle: Klucel (hydroxypropylcellulose) (HPC), higher = longer survival): 121 % of control
T/C (endpoint: median survival time, dose: 1.56 mg/kg/injection, schedule: Q01DX009 (ip), vehicle: Klucel (hydroxypropylcellulose) (HPC), higher = longer survival): 121 % of control
T/C (endpoint: median survival time, dose: 6.25 mg/kg/injection, schedule: Q01DX009 (ip), vehicle: Klucel (hydroxypropylcellulose) (HPC), higher = longer survival): 120 % of control

CSCCC(N)C(=O)O (configuration not stated)
T/C [2]: 108 % of control
T/C [3]: 97 % of control
T/C [4]: 97 % of control
T/C (endpoint: median survival time, dose: 320.0 mg/kg/injection, schedule: Q01DX009 (ip), vehicle: Klucel (hydroxypropylcellulose) (HPC), higher = longer survival): 122 % of control

COc1cccc2c1C(=O)c1c(O)c3c(c(O)c1C2=O)C[C@@](O)(C(=O)COC(=O)Cc1ccccc1)C[C@@H]3OC1CC(N)C(O)C(C)O1 (some centres not stated)
T/C (endpoint: median survival time, dose: 0.5 mg/kg/injection, schedule: Q01DX009 (ip), vehicle: saline with Tween-80, higher = longer survival): 86 % of control
T/C (endpoint: median survival time, dose: 1.0 mg/kg/injection, schedule: Q01DX009 (ip), vehicle: saline with Tween-80, higher = longer survival): 88 % of control
T/C (endpoint: median survival time, dose: 2.0 mg/kg/injection, schedule: Q01DX009 (ip), vehicle: saline with Tween-80, higher = longer survival): 94 % of control

CS(C)=O
T/C (endpoint: median survival time, dose: 1.5 grams/kg/injection, schedule: Q01DX009 (ip), vehicle: saline, higher = longer survival): 105 % of control
T/C (endpoint: median survival time, dose: 3.0 grams/kg/injection, schedule: Q01DX009 (ip), vehicle: saline, higher = longer survival): 109 % of control and 111 % of control
T/C (endpoint: median survival time, dose: 6.0 grams/kg/injection, schedule: Q01DX009 (ip), vehicle: saline, higher = longer survival): 96 % of control and 108 % of control

CN(C)c1nc(N(C)C)nc(N(C)C)n1
T/C [5]: 115 % of control
T/C [2]: 118 % of control
T/C [3]: 111 % of control
T/C [4]: 115 % of control

OC(CBr)C(O)C(O)C(O)CBr (configuration not stated)
T/C [5]: 102 % of control
T/C [2]: 106 % of control
T/C (endpoint: median survival time, dose: 125.0 mg/kg/injection, schedule: Q01DX009 (ip), vehicle: Klucel (hydroxypropylcellulose) (HPC), higher = longer survival): 113 % of control
T/C (endpoint: median survival time, dose: 150.0 mg/kg/injection, schedule: Q01DX009 (ip), vehicle: Klucel (hydroxypropylcellulose) (HPC), higher = longer survival): 106 % of control
T/C (endpoint: median survival time, dose: 250.0 mg/kg/injection, schedule: Q01DX009 (ip), vehicle: Klucel (hydroxypropylcellulose) (HPC), higher = longer survival): 123 % of control

Cc1nc(N)nc(N)c1-c1ccc(Cl)c(Cl)c1
T/C (endpoint: median survival time, dose: 1.0 mg/kg/injection, schedule: Q02DX009 (ip), vehicle: Klucel (hydroxypropylcellulose) (HPC), higher = longer survival): 103 % of control
T/C (endpoint: median survival time, dose: 2.0 mg/kg/injection, schedule: Q02DX009 (ip), vehicle: Klucel (hydroxypropylcellulose) (HPC), higher = longer survival): 99 % of control
T/C (endpoint: median survival time, dose: 4.0 mg/kg/injection, schedule: Q02DX009 (ip), vehicle: Klucel (hydroxypropylcellulose) (HPC), higher = longer survival): 88 % of control
T/C (endpoint: median survival time, dose: 8.0 mg/kg/injection, schedule: Q02DX009 (ip), vehicle: Klucel (hydroxypropylcellulose) (HPC), higher = longer survival): 112 % of control

O=NN(CCCl)C(=O)NC1CCCCC1
T/C (endpoint: median survival time, dose: 4.0 mg/kg/injection, schedule: Q01DX009 (ip), vehicle: saline, higher = longer survival): 115 % of control
T/C (endpoint: median survival time, dose: 5.18 mg/kg/injection, schedule: Q01DX007 (ip), vehicle: Klucel (hydroxypropylcellulose) (HPC), higher = longer survival): 103 % of control
T/C (endpoint: median survival time, dose: 8.64 mg/kg/injection, schedule: Q01DX007 (ip), vehicle: Klucel (hydroxypropylcellulose) (HPC), higher = longer survival): 88 % of control
T/C (endpoint: median survival time, dose: 12.0 mg/kg/injection, schedule: Q01DX001 (ip), vehicle: Klucel (hydroxypropylcellulose) (HPC), higher = longer survival): 111 % of control and 112 % of control and 116 % of control
T/C (endpoint: median survival time, dose: 14.4 mg/kg/injection, schedule: Q01DX007 (ip), vehicle: Klucel (hydroxypropylcellulose) (HPC), higher = longer survival): 124 % of control
T/C (endpoint: median survival time, dose: 16.0 mg/kg/injection, schedule: Q01DX009 (ip), vehicle: saline, higher = longer survival): 175 % of control
T/C (endpoint: median survival time, dose: 32.0 mg/kg/injection, schedule: Q01DX009 (ip), vehicle: saline, higher = longer survival): 105 % of control
T/C (endpoint: median tumor weight (est.), dose: 8.0 mg/kg/injection, schedule: Q01DX009 (ip), vehicle: Klucel (hydroxypropylcellulose) (HPC), higher = larger tumour): 28 % of control and 47 % of control
T/C (endpoint: median tumor weight (est.), dose: 12.5 mg/kg/injection, schedule: Q01DX001 (ip), vehicle: Klucel (hydroxypropylcellulose) (HPC), higher = larger tumour): 96 % of control and 110 % of control
T/C (endpoint: median tumor weight (est.), dose: 16.0 mg/kg/injection, schedule: Q01DX009 (ip), vehicle: Klucel (hydroxypropylcellulose) (HPC), higher = larger tumour): 27 % of control
T/C (endpoint: median tumor weight (est.), dose: 50.0 mg/kg/injection, schedule: Q01DX001 (ip), vehicle: Klucel (hydroxypropylcellulose) (HPC), higher = larger tumour): 21 % of control
T/C (endpoint: median tumor weight (est.), dose: 100.0 mg/kg/injection, schedule: Q01DX001 (ip), vehicle: Klucel (hydroxypropylcellulose) (HPC), higher = larger tumour): 38 % of control

CCCCCc1cc(O)c2c(c1)OC(C)(C)c1ccc(C)cc1-2
T/C (endpoint: median survival time, dose: 64.0 mg/kg/injection, schedule: Q01DX009 (ip), vehicle: saline, higher = longer survival): 113 % of control
T/C (endpoint: median survival time, dose: 128.0 mg/kg/injection, schedule: Q01DX009 (ip), vehicle: saline, higher = longer survival): 98 % of control
T/C (endpoint: median survival time, dose: 256.0 mg/kg/injection, schedule: Q01DX009 (ip), vehicle: saline, higher = longer survival): 117 % of control
T/C (endpoint: median survival time, dose: 512.0 mg/kg/injection, schedule: Q01DX009 (ip), vehicle: saline, higher = longer survival): 98 % of control

O=C(O)CC(NC(=O)CP(=O)(O)O)C(=O)O (configuration not stated)
T/C (endpoint: median survival time, dose: 153.0 mg/kg/injection, schedule: Q01DX009 (ip), vehicle: saline, higher = longer survival): 110 % of control
T/C (endpoint: median survival time, dose: 1140.0 mg/kg/injection, schedule: Q01DX001 (ip), vehicle: saline, higher = longer survival): 114 % of control

O=NN(CCF)C(=O)NC1CCS(=O)(=O)CC1
T/C (endpoint: median survival time, dose: 24.0 mg/kg/injection, schedule: Q01DX001 (ip), vehicle: other, higher = longer survival): 156 % of control
T/C (endpoint: median survival time, dose: 32.0 mg/kg/injection, schedule: Q01DX001 (ip), vehicle: other, higher = longer survival): 175 % of control

Cc1cc2oc(=O)c3c(c2c(O)c1CN1CCN(C)CC1)CCCC3
T/C [1]: 110 % of control
T/C (endpoint: median survival time, dose: 128.0 mg/kg/injection, schedule: Q01DX009 (ip), vehicle: Klucel (hydroxypropylcellulose) (HPC), higher = longer survival): 113 % of control
